We go through 14 compounds from patent US20260088132A1, “CHEMICAL PAINTING” (The Trustees of Columbia University in the City of New York, priority 2023, published 2026).

Counter-ions that a name gives are not always drawn.

Holding throughout (type): cell-based, human
Experiment [1] relates to MDA-MB-231 cells. In words: Cell viability assay (Alamar blue) for drug IC50. Particulars: single drug, 48 hrs; for half of the IC50 values: concentration added in combination groups. From the text:
Another aspect to consider is how to ensure the cells are in a similar state under different categories of drug treatments. To achieve this, we measured the half maximal inhibitory concentration (IC50) of different drugs separately by cell viability assays in 48 hrs, in agreement with the probe culturing time. This method is commonly used in pharmaceutical studies to compare the effect of various products. Besides the experimental operations, data analysis is vital to the obtained large-scale data to map cell phenotypes after drug perturbation. We thus built a complete analytical pipeline for Chemical Painting, including data preprocessing, single-cell segmentation, single-cell biochemical profile extraction and downstream analysis.
Cell viability assay and drug IC50 calculus. The IC50 values of the drugs were determined by Alamar blue assay. Cells were seeded at 10,000 per well in 96-well plates. After 24 h, the cells were washed twice with phosphate buffered saline (PBS) and treated with drugs at different concentrations in cell culture media for 48 hrs. Each drug concentration has 6-8 replicates. After the drug treatments, cells were washed with PBS twice and the cell viability was determined by Alamar blue assay following the manufacturer's protocol (Invitrogen) using plate reader. The IC50 values were determined by fitting the data using a dose response model with variable Hill slope built in Prism.
Background: The colour change of resazurin is a common sign of viable cells or microbes.

Experiment [2] deals with MDA-MB-231 cells. In words: Chemical Painting: single-cell metabolic responses by FTIR imaging with three IR-active vibrational probes. Particulars: drug at its IC50 concentration, 48 hrs, compared with control. The procedure: The first step is to add the three vibrational probes and the tested drug at its IC50 concentration to the cell culture media and co-cultured for 48 hrs. After that, cells are fixed and air-dried. Then Fourier transformed infrared (FTIR) imaging, a modality of MIR imaging, was performed to collect the full spectral data of cells. The collection speed is around 2 cells/second for human cancer cells with sufficient co-scans (˜64 scans). In the following data analysis, quality test, baseline correction and data normalization were included for data preprocessing (Methods). Next, single-cell segmentation was performed with open-source software CellProfiler to generate masks. These masks can be further used to extract single-cell IR spectrum from the MIR imaging data, forming the single-cell biochemical profile. We then introduced a series of analytical methods for the downstream analysis, including machine learning, novelty detection and statistical methods to map cell phenotypes and identify drug MoAs. Overall, the workflow of Chemical Painting is straightforward in experimental operations and effected in single-cell data analysis, which laid the foundation for this method to reveal valuable insights toward phenotypic profiling and potential drug discovery.
Systematic sensitivity and generalizability evaluation of Chemical Painting toward a broad range of drugs: It remains unknown whether our method has sufficient sensitivity to differentially discriminate cell responses to different drugs. To evaluate its sensitivity we tested 13 drugs belonging to 9 different drug MoAs. These drugs can be separated into two main panels: one consists of drugs that inhibit general metabolism; another one contains drugs targeting specific proteins or interfering with particular metabolic pathways. The single-cell metabolic responses toward different drug treatment were visualized in the 3D scatter plots where x-axis represents saturated FA metabolism (azido-PA/CH2), y-axis represents unsaturated FA metabolism (d34OA/CH2), and z-axis represents protein synthesis (^13C amide I/(^13C amide I+^12C amide I)). The use of ratios is meant for more accurate quantification of metabolic activities. Each dot represents the metabolic responses of an individual cell in the plots.
(§1) Sample preparation for drug-treated cells with labeling. MDA-MB-231 cells were seeded on clean CaF2 substrates with 5×10^4 cells per well in cell culture media (DMEM, 10% FBS, 1% penicillin) overnight. Then the culture media was replaced by ^13C-amino acids DMEM with 50 μM azido-palmitic acid, 50 μM d34 oleic acid, either single drug at its IC50 concentration or drug combinations at chosen concentrations. Drugs were prepared in 100% DMSO and diluted to 0.1% DMSO in labeling media. For the control group, only cell labeling media with 0.1% DMSO was added (without any drugs). Cells were treated for 48 hrs. After that, cells were fixed by 4% PFA at room temperature for 15 min and washed three times with PBS buffer and five times with dd-H2O. The samples were then air-dried before imaging.
(§2) FTIR imaging. Agilent Cary 620 Imaging FTIR equipped with an Agilent 670-IR spectrometer and 128×128-pixels FPA mercury cadmium telluride (MCT) detector was used in the transmission mode. A background spectrum was collected on a clean CaF2 substrate using 128 scans at 8 cm-1 spectral resolution. Cell spectra were recorded using 64-128 scans at 8 cm-1 spectral resolution. A ×25 IR objective (pixel size, 3.3 um, 0.81 numerical aperture (NA)) was used for cell imaging.
Data preprocessing. […]

In experiment [3] the test system is MDA-MB-231 cells. Description: Novelty detection of drug MoA on single-cell Chemical Painting data (LDA, Mahalanobis distance, isolation forest). The note with it: test compounds; for Prediction: MoA predicted as known class or novel; for Mean score: dynamic range [1, −1], below 0.1 detected as novel; for Outlier %: single-cell data predicted as outliers (novel).
Excerpt: We specifically designed an algorithm for Chemical Painting to identify drugs with novel MoAs, using the dataset and model in drug MoA prediction as an annotated reference. In this algorithm, the first step is to calculate the Mahalanobis distance between single-cell data from test compound and each reference class in the trained LDA model. The class with the minimum distance represents the known drug closest to the test compound. Next, isolation forest, is introduced to determine whether the test compound is novel to the selected known drug class. The prediction output in this step is 1 as inliers (known) and −1 as outliers (novel) for each single-cell data from the test compound. […] Test compound with a mean prediction score below the threshold value is detected as novel.
as §1, §2
Machine learning. The tests of all the machine learning classifiers were performed using Python (Scikit-learn). Specifically, single-cell data was split into 70% training and 30% testing with labels corresponding to drug MoAs. The hyper-parameters of each classifier were carefully tuned using RandomizedSearchCv in Scikit-learn. The performances of these classifiers were evaluated in the testing dataset using accuracy as the main metric. To test the performance of classifiers on batch effects, single-cell data collected from different batches were loaded as another testing dataset. For feature importances of LDA classifier, permutation feature importance (Scikit-learn) was used. The intrinsic feature importance values from random forest classifier were also extracted.
Novelty detection algorithm. In the first step, the Mahalanobis distances between the test compound and each reference class in the annotated dataset were calculated by home-built codes in python. Drug class with minimum distance was selected. Next, isolation forest, which is available in Python, was imported to predict whether single-cell data from the test compound is known (inliers) or novel (outliers) to the selected drug class. The mean of the prediction results from single-cell data is reported as mean prediction score.

By IC50 is commonly meant the midpoint of a concentration-inhibition curve. A lower IC50 goes with inhibition by little substance. Compound `CS(=O)(=O)CCNCc1ccc(-c2ccc3ncnc(Nc4ccc(OCc5cccc(F)c5)c(Cl)c4)c3c2)o1` [lapatinib] registered an IC50 in experiment [1] (Homo sapiens, MDA-MB-231, cell viability) of 2.14 µM. For the same compound, the “half of the IC50 values” in experiment [1] amounted to 1.12 µM.

Take `CCC/C=C/C/C=C/C=C/C=N/NN=O` [triacsin-C, triacsin C]: in experiment [2], the “protein synthesis (13C amide I/(13C amide I+12C amide I))” value (“protein synthesis” for short) is listed as “remained at a similar level compared with the control group”, the “saturated FA metabolism (azido-PA/CH2)” value is reported as “significant decreases” and the “unsaturated FA metabolism (d34OA/CH2)” value is “significant decreases”.

Consider `CC[C@]1(O)C[C@H]2CN(CCc3c([nH]c4ccccc34)[C@@](C(=O)OC)(c3cc4c(cc3OC)N(C=O)[C@H]3[C@@](O)(C(=O)OC)[C@H](OC(C)=O)[C@]5(CC)C=CCN6CC[C@]43[C@@H]65)C2)C1` [Vincristine], for which, in experiment [3], the Prediction entry is recorded as “Novel”, the Mean score is −0.9466 and the Outlier % is 97.33%.

As to `CCC(=O)CCCCC[C@@H]1NC(=O)[C@H]2CCCCN2C(=O)[C@H]([C@@H](C)CC)NC(=O)[C@H](Cc2cn(OC)c3ccccc23)NC1=O` [Apicidin], in experiment [3], the Mean score is listed as −0.5289 and the Outlier % was 76.45%.

Regarding `C[C@@H]1C[C@@H]([C@H](O)CC2CC(=O)NC(=O)C2)C(=O)[C@@H](C)C1` [cycloheximide], the “protein synthesis” value in experiment [2] is “much lower”.

Consider `COc1cccc2c1C(=O)c1c(O)c3c(c(O)c1C2=O)C[C@@](O)(C(C)=O)C[C@@H]3O[C@H]1C[C@H](N)[C@H](O)[C@H](C)O1` [Daunorubicin, Daunorubicin hydrochloride], for which, in experiment [3], the Prediction result was “DNA intercalation” and the Outlier % was 7.515%. Moreover, the Mean score in experiment [3] (hydrochloride) amounted to 0.8497. For the same compound, the Mean score result in experiment [3] (listed as daunorubicin, hydrochloride) is recorded as “high”.

For the compound `CC[C@H]1CN2CCc3cc(OC)c(OC)cc3[C@@H]2C[C@@H]1C[C@H]1NCCc2cc(OC)c(OC)cc21` [Emetine, emetine], in experiment [3], the Prediction result is “Protein”, the Mean score was determined as 0.6208 and the Outlier % is given as 18.96%. For the same compound, the Mean score result in experiment [3] (listed as emetine) is “high”.

For the compound `CC(C)C[C@H](NC(=O)[C@H](Cc1ccccc1)NC(=O)c1cnccn1)B(O)O` [bortezomib], in experiment [2], the “protein synthesis” value is given as “more evidently decreased”, the “saturated FA metabolism (azido-PA/CH2)” value was “reduced” and the “unsaturated FA metabolism (d34OA/CH2)” value is recorded as “reduced”.

`CO[C@H]1C[C@@H]2CC[C@@H](C)[C@@](O)(O2)C(=O)C(=O)N2CCCC[C@H]2C(=O)O[C@H]([C@H](C)C[C@@H]2CC[C@@H](OCCO)[C@H](OC)C2)CC(=O)[C@H](C)/C=C(\C)[C@@H](O)[C@@H](OC)C(=O)[C@H](C)C[C@H](C)/C=C/C=C/C=C/1C` [everolimus]: the “half of the IC50 values” in experiment [1] worked out at 14.5 µM.

Consider TVB-3166, for which, in experiment [2], the “protein synthesis” value is “slightly decreased”, the “saturated FA metabolism (azido-PA/CH2)” value is listed as “significantly reduced” and the “unsaturated FA metabolism (d34OA/CH2)” value is on record as “significantly reduced”.

With `O=C(c1cc(Cc2n[nH]c(=O)c3ccccc23)ccc1F)N1CCN(C(=O)C2CC2)CC1` [olaparib], in experiment [2], the “protein synthesis” value is on record as “significantly reduced”, the “saturated FA metabolism (azido-PA/CH2)” value is given as “significantly reduced” and the “unsaturated FA metabolism (d34OA/CH2)” value is recorded as “significantly reduced”.

As for `NC(=O)c1ccc(I)c([N+](=O)[O-])c1` [Iniparib, iniparib], in experiment [3], the Prediction entry is reported as “Novel”, the Mean score is recorded as −0.9923 and the Outlier % is 99.62%. In addition, in experiment [3] (listed as iniparib), the Mean score result is “quite negative”.

In the case of `CC(=O)O[C@H]1C(=O)[C@@]2(C)[C@H]([C@H](OC(=O)c3ccccc3)[C@]3(O)C[C@H](OC(=O)[C@H](O)[C@@H](NC(=O)c4ccccc4)c4ccccc4)C(C)=C1C3(C)C)[C@]1(OC(C)=O)CO[C@@H]1C[C@@H]2O` [Taxol], in experiment [3], the Prediction result was “Novel”, the Mean score is −0.5052 and the Outlier % is listed as 75.26%.

Regarding `COc1cccc2c1C(=O)c1c(O)c3c(c(O)c1C2=O)C[C@@](O)(C(=O)CO)C[C@@H]3O[C@H]1C[C@H](N)[C@H](O)[C@H](C)O1` [doxorubicin, doxorubicin hydrochloride], in experiment [2], the “protein synthesis” value is reported as “largely inhibited”, the “saturated FA metabolism (azido-PA/CH2)” value is on record as “largely inhibited” and the “unsaturated FA metabolism (d34OA/CH2)” value is “largely inhibited”.
